Experimental data taken from the NIST ThermoML archive (doi:10.1016/j.jct.2009.05.018).
Numbers after ± are expanded uncertainties.

Test: molar enthalpy of vaporization or sublimation
Settings: 298.15 K, Calvet microcalorimetry

molar enthalpy (Liquid) [kcal/mol] | molar enthalpy (Crystal) [kcal/mol] | Structure (SMILES)
14.9 ± 0.765 |  | Cn1ccc2ccccc21 [1-methylindole]
 | 21.2 ± 1.15 | Cc1cc2ccccc2[nH]1 [2-methylindole]
 | 21.6 ± 0.908 | Cc1c[nH]c2ccccc12 [3-methyl-1H-indole]
